Laboratory results as given in patent publication US20260262643A1, “HERBICIDAL BENZOXAZINES” (FMC CORPORATION, priority 2022, published 2026).

Legend:
wheat [1] = assay: Test C postemergence; format: in vivo, Triticum aestivum; conditions: 10 days
Outline: (§1)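 Test material, in non-phytotoxic solvent with surfactant, was sprayed on the soil directly after seeding (preemergence) or on young plants of 2–10 cm with one to two leaves (postemergence). Greenhouse, 10 days; 0–100 visual control scale.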

oat, wild [2] = assay: Test C postemergence; format: in vivo, Avena fatua; conditions: 10 days
Outline: as §1

barnyardgrass [3] = assay: Test C preemergence; format: in vivo, Echinochloa crusgalli; conditions: 0 to 100 scale (0 no effect, 100 complete control)
Outline: as §1

ragweed [4] = assay: Test C preemergence; format: in vivo, Ambrosia artemisiifolia; conditions: 0 to 100 scale (0 no effect, 100 complete control)
Outline: as §1

ryegrass, Italian [5] = assay: Test C postemergence; format: in vivo, Lolium multiflorum; conditions: 10 days
Outline: as §1

ryegrass, Italian [6] = assay: Test C preemergence; format: in vivo, Lolium multiflorum; conditions: 0 to 100 scale (0 no effect, 100 complete control)
Outline: as §1

oat, wild [7] = assay: Test C preemergence; format: in vivo, Avena fatua; conditions: 0 to 100 scale (0 no effect, 100 complete control)
Outline: as §1

sedge, umbrella = assay: Test D flooded paddy test; format: in vivo, Cyperus difformis; conditions: 250 g ai/ha, applied to paddy water, visual rating after 13 to 14 days, scale 0 to 100 (0 no effect, 100 complete control)
Method: (§2) Plant species in the flooded paddy test selected from barnyardgrass (Echinochloa crus-galli), ducksalad (Heteranthera limosa), rice (Oryza sativa), and sedge, umbrella (small-flower umbrella sedge, Cyperus difformis) were grown to the 2-leaf stage for testing. At time of treatment, test pots were flooded to 3 cm above the soil surface, treated by application of test compounds directly to the paddy water, and then maintained at that water depth for the duration of the test. Treated plants and controls were maintained in a greenhouse for 13 to 14 days, after which time all species were compared to controls and visually evaluated. Plant response ratings, summarized in Table D, are based on a scale of 0 to 100 where 0 is no effect and 100 is complete control. A dash (-) response means no test result.

ducksalad = assay: Test D flooded paddy test; format: in vivo, Heteranthera limosa; conditions: 250 g ai/ha, applied to paddy water, visual rating after 13 to 14 days, scale 0 to 100 (0 no effect, 100 complete control)
Method: as §2

blackgrass [8] = assay: Test C preemergence; format: in vivo, Alopecurus myosuroides; conditions: 0 to 100 scale (0 no effect, 100 complete control)
Outline: as §1

rice = assay: Test D flooded paddy test; format: in vivo, Oryza sativa; conditions: 250 g ai/ha, applied to paddy water, visual rating after 13 to 14 days, scale 0 to 100 (0 no effect, 100 complete control)
Method: as §2

horseweed = assay: Test C postemergence; format: in vivo, Erigeron canadensis; conditions: 10 days
Outline: as §1

green foxtail = assay: Test C preemergence; format: in vivo, Setaria viridis; conditions: 0 to 100 scale (0 no effect, 100 complete control)
Outline: as §1

galium = assay: Test C postemergence; format: in vivo, Galium aparine; conditions: 10 days
Outline: as §1

corn [9] = assay: Test C postemergence; format: in vivo, Zea mays; conditions: 10 days
Outline: as §1

barnyardgrass [10] = assay: Test D flooded paddy test; format: in vivo, Echinochloa crus-galli; conditions: 250 g ai/ha, applied to paddy water, visual rating after 13 to 14 days, scale 0 to 100 (0 no effect, 100 complete control)
Method: as §2

corn [11] = assay: Test C preemergence; format: in vivo, Zea mays; conditions: 0 to 100 scale (0 no effect, 100 complete control)
Outline: as §1

soybean [12] = assay: Test C postemergence; format: in vivo, Glycine max; conditions: 10 days
Outline: as §1

blackgrass [13] = assay: Test C postemergence; format: in vivo, Alopecurus myosuroides; conditions: 10 days
Outline: as §1

kochia [14] = assay: Test C postemergence; format: in vivo, Bassia scoparia; conditions: 10 days
Outline: as §1

pigweed, palmer [15] = assay: Test C preemergence; format: in vivo, Amaranthus palmeri; conditions: 0 to 100 scale (0 no effect, 100 complete control)
Outline: as §1

wheat [16] = assay: Test C preemergence; format: in vivo, Triticum aestivum; conditions: 0 to 100 scale (0 no effect, 100 complete control)
Outline: as §1

pigweed, palmer [17] = assay: Test C postemergence; format: in vivo, Amaranthus palmeri; conditions: 10 days
Outline: as §1

barnyardgrass [18] = assay: Test C postemergence; format: in vivo, Echinochloa crusgalli; conditions: 10 days
Outline: as §1

ragweed [19] = assay: Test C postemergence; format: in vivo, Ambrosia artemisiifolia; conditions: 10 days
Outline: as §1

soybean [20] = assay: Test C preemergence; format: in vivo, Glycine max; conditions: 0 to 100 scale (0 no effect, 100 complete control)
Outline: as §1

kochia [21] = assay: Test C preemergence; format: in vivo, Bassia scoparia; conditions: 0 to 100 scale (0 no effect, 100 complete control)
Outline: as §1

[22] = 125 g ai/ha, postemergence, 0 to 100 scale, 0 no effect, 100 complete control
[23] = Postemergence, 500 g ai/ha, visual 0 to 100 scale (0 no effect, 100 complete control)
[24] = Preemergence, 500 g ai/ha, visual rating after 10 days
[25] = Test C, preemergence, 125 g ai/ha

Cc1ccc(-n2cnc(C3(C)CC3)n2)cc1C(=O)N1C[C@H](C)Oc2c(Cl)cccc21 [Compound 252]
Plant response rating, Wheat (wheat [1]; [22]): 20
Plant response rating, Wheat (wheat [1]; [23]): 30
Plant response rating, Oat, Wild (oat, wild [2]; [22]): 10
Plant response rating, Oat, Wild (oat, wild [2]; [23]): 10
Plant response rating, Barnyardgrass (barnyardgrass [3]; [24]): 90
Barnyardgrass plant response rating (barnyardgrass [3]; [25]): 80
Plant response rating, Ragweed (ragweed [4]; [24]): 30
Ragweed plant response rating (ragweed [4]; [25]): 0
Plant response rating, Ryegrass, Italian (ryegrass, Italian [5]; [22]): 80
Plant response rating, Ryegrass, Italian (ryegrass, Italian [5]; [23]): 80
Plant response rating, Ryegrass, Italian (ryegrass, Italian [6]; [24]): 80
Ryegrass, Italian plant response rating (ryegrass, Italian [6]; [25]): 60
Plant response rating, Oat, Wild (oat, wild [7]; [24]): 70
Oat, Wild plant response rating (oat, wild [7]; [25]): 20
Plant response rating, Sedge, Umbrella (Flood) (sedge, umbrella): 15
Plant response rating, Ducksalad (Flood) (ducksalad): 15
Plant response rating, Blackgrass (blackgrass [8]; [24]): 20
Blackgrass plant response rating (blackgrass [8]; [25]): 0
Plant response rating, Rice (Flood) (rice): 0
Plant response rating, Horseweed (horseweed; [22]): 20
Plant response rating, Horseweed (horseweed; [23]): 50
Plant response rating, Foxtail, Green (green foxtail; [24]): 100
Foxtail, Green plant response rating (green foxtail; [25]): 100
Plant response rating, Galium (galium; [22]): 100
Plant response rating, Galium (galium; [23]): 100
Plant response rating, Corn (corn [9]; [22]): 60
Plant response rating, Corn (corn [9]; [23]): 80
Plant response rating, Barnyardgrass (Flood) (barnyardgrass [10]): 35
Plant response rating, Corn (corn [11]; [24]): 0
Corn plant response rating (corn [11]; [25]): 0
Plant response rating, Soybean (soybean [12]; [22]): 100
Plant response rating, Soybean (soybean [12]; [23]): 100
Plant response rating, Blackgrass (blackgrass [13]; [22]): 80
Plant response rating, Blackgrass (blackgrass [13]; [23]): 80
Plant response rating, Kochia (kochia [14]; [22]): 90
Plant response rating, Kochia (kochia [14]; [23]): 100
Plant response rating, Pigweed, Palmer (pigweed, palmer [15]; [24]): 100
Pigweed, Palmer plant response rating (pigweed, palmer [15]; [25]): 100
Plant response rating, Wheat (wheat [16]; [24]): 10
Wheat plant response rating (wheat [16]; [25]): 0
Plant response rating, Pigweed, Palmer (pigweed, palmer [17]; [22]): 90
Plant response rating, Pigweed, Palmer (pigweed, palmer [17]; [23]): 100
Plant response rating, Barnyardgrass (barnyardgrass [18]; [22]): 60
Plant response rating, Barnyardgrass (barnyardgrass [18]; [23]): 80
Plant response rating, Ragweed (ragweed [19]; [22]): 70
Plant response rating, Ragweed (ragweed [19]; [23]): 80
Plant response rating, Soybean (soybean [20]; [24]): 80
Soybean plant response rating (soybean [20]; [25]): 20
Plant response rating, Kochia (kochia [21]; [24]): 100
Kochia plant response rating (kochia [21]; [25]): 100
